Series [1] has as its system human prostate cancer cells. In words: Proliferation of human prostate cancer cells in vitro. The series is classed as cell-based.
For series [2], the system named is prostate specific antigen (PSA). The series can be described thus: Extracellular PSA secreted by LNCaP cells exposed to DBM (ELISA analysis). Format: cell-based, human. Conditions: baseline about 700. From the text: (§1) LNCaP cells cultured in the presence of androgens secrete prostate specific antigen (PSA) into the culture medium.
For series [3] the test system is unchanged. In words: Intracellular PSA levels in LNCaP cells exposed to DBM (Western analysis). The series is classed as cell-based, human.
Excerpt: as §1

The subject of series [4] is TRAMP (TRansgenic Adenocarcinoma of Mouse Prostate) mice. In words: Prostate carcinogenesis in TRAMP mice fed 1% DBM diet. The series is classed as in vivo. The source says: In other words, development of premalignant prostatic intraepithelial (PIN) neoplasia and primary adenocarcinoma of the prostate of TRAMP mice is similar to the development of prostate cancer in humans. TRAMP mice are discussed in greater detail in U.S. Pat. No. 5,907,087, which is incorporated herein by reference.
(§2) Two groups of TRAMP mice were studied, where one is a control cohort and the other is the cohort fed DBM.

Series [5] in a line: Serum DBM levels in TRAMP mice fed 1% DBM diet. The series is classed as in vivo, mouse.
Excerpt: as §2

Take `O=C(CC(=O)c1ccccc1)c1ccccc1` [DBM, dibenzoylmethane]: the “proliferation of human prostate cancer cells in vitro” value in series [1] is recorded as “inhibit proliferation”. For the same molecule, the figures for the “Extracellular PSA” value in series [2] (25 micromolar DBM), in series [2] (50 micromolar DBM) and in series [2] (at micromolar DBM (concentration not given)) were ~150 nanograms per milliliter, ~100 nanograms per milliliter and “approximately 200 nanograms per milliliter”, respectively. The “DBM concentration at which intracellular PSA is not readily detectable by Western analysis” value in series [3] is ≥ 10 µM. For the same molecule, the PSA levels entry in series [3] (DBM at 10, 25 and 50 micromolar) is recorded as “dose-dependent down regulation”. For the same molecule, the “cancer and high-grade prostatic intraepithelial neoplasia versus control cohort” value in series [4] (1% DBM diet, at 18 weeks) was “significantly less cancer and high-grade prostatic intraepithelial neoplasia”. Moreover, the “mice developing either adenocarcinoma or high grade PIN” value in series [4] (diet of 1% DBM (weight/weight) in AIN-76A from six weeks of age, control cohort 6 of 10) is 2 of 11. The “serum levels of DBM” value in series [5] (diet of 1% DBM from six weeks of age) was found to be 1000 nM. In addition, the “oral absorption from the gastrointestinal tract” value in series [5] (oral DBM in diet) is “orally bioavailable”.
